One data set has as its target T1, NHE-1 subtype (Homo sapiens, UniProt P19634).
T1 construct: expressed in transfected cells; host or cells: LAP-1 cells (parental line has no endogenous NHE activity), stably transfected and kept under G418 selection
The experiment in a line: NHE inhibition FLIPR test (intracellular pH recovery, BCECF) in transfected LAP-1 cell lines expressing NHE subtypes. The data set is classed as cell-based. As to conditions: transfected LAP-1 cells expressing NHE-1 subtype, read-out: IC50 (NHE1). As to the method:
The NHE inhibitory activities (IC50 values) of the compounds according to the invention were determined by a FLIPR test.
The test is performed in the FLIPR (Fluorescent Imaging Plate Reader) equipped with clear-bottomed and black-walled 96-well microtitration plates.
The growth medium for the transfected cells (Iscove +10% foetal calf serum) also comprises G418 as selection antibiotic to ensure the presence of transfected sequences.
The actual test begins by eliminating the growth medium and adding 100 μl of loading buffer per well (5 μM of BCECF-AM [2′,7′-bis(2-carboxyethyl)-5-(6)-carboxyfluoresceine acetoxymethyl ester] in 20 mM of NH4Cl, 115 mM of choline chloride, 1 mM of CaCl2, 5 mM of KCl, 20 mM of HEPES and 5 mM of glucose; pH 7.4 (adjusted with KOH). The cells are then incubated for 20 minutes at 37° C. This incubation results in the loading of the fluorescent dye into the cells, the fluorescence intensity of which depends on the pHi, and on the NH4Cl, which results in a slight basification of the cells.
The precursor BCECF-AM, a non-fluorescent dye, is, as an ester, capable of crossing the membrane. The actual dye, which is incapable of crossing the membrane, is released inside the cell by esterases.
After this 20-minute incubation, the loading buffer, which comprises NH4Cl and free BCECF-AM, is removed by washing three times in the cell washing device (Tecan Columbus), each wash being performed with 400 μL of washing buffer (133.8 mM of choline chloride, 4.7 mM of KCl, 1.25 mM of MgCl2, 1.25 mM of CaCl2, 0.97 mM of K2HPO4, 0.23 mM of KH2PO4, 5 mM of HEPES and 5 mM of glucose; pH 7.4 (adjusted with KOH)). The residual volume remaining in the wells is 90 μL (possibly between 50 and 125 μL). This washing step removes the free BCECF-AM and results in an intracellular acidification (pHi of 6.3–6.4) due to the removal of the external ammonium ions.
As the equilibrium of the intracellular ammonium with the aqueous ammonia and the protons, by removal of the extracellular ammonium and by the subsequent immediate crossing of the aqueous ammonia across the cell membrane, is disrupted, the washing process results in intracellular protons remaining, which is the cause of the intracellular acidification. This acidification can result finally in the death of the cells if it lasts long enough. It is important here for the washing buffer to be free of sodium (<1 mM), otherwise the extracellular sodium ions would result in an immediate increase in the pHi on account of the activity of the cloned NHE isoforms. It is also important for all the buffers used (loading buffer, washing buffer and regeneration buffer) not to contain any HCO3-ions, otherwise the presence of bicarbonate would result in the activation of bicarbonate-dependent systems that disrupt the pHi regulation, which systems are contained in the LAP-1 parental cell line.
The microtiter plates containing acidified cells are then transferred (up to 20 minutes after the acidification) to the FLIPR. In the FLIPR, the intracellular fluorescent dye is activated with light of a wavelength of 488 nm, which is generated by an argon laser, and the measuring parameters (laser power, illumination time and diaphragm of the […] camera integrated into the FLIPR) are chosen such that the average value of the f fluorescent signal per well is between 30,000 and 35,000 relative fluorescence units.
The actual measurement in the FLIPR starts with a photograph being taken by the CCD camera every two seconds under software control. After 10 seconds, the increase in the intracellular pH is initiated by adding 90 μL of regeneration buffer (133.8 mM of NaCl, 4.7 mM of KCl, 1.25 mM of MgCl2, 1.25 mM of CaCl2, 0.97 mM of K2HPO4, 0.23 mM of KH2PO4, 10 mM of HEPES and 5 mM of glucose; pH 7.4 (adjusted with NaOH)) using a 96-well pipette device incorporated into the FLIPR.
Some wells, to which is added pure regeneration buffer, serve as positive controls (100% NHE activity). […]

One may read the IC50 as the concentration that gives 50% inhibition. In general, melting point refers to the temperature, or range, at which the solid turns liquid.

T1 sequence (P19634 whole entry): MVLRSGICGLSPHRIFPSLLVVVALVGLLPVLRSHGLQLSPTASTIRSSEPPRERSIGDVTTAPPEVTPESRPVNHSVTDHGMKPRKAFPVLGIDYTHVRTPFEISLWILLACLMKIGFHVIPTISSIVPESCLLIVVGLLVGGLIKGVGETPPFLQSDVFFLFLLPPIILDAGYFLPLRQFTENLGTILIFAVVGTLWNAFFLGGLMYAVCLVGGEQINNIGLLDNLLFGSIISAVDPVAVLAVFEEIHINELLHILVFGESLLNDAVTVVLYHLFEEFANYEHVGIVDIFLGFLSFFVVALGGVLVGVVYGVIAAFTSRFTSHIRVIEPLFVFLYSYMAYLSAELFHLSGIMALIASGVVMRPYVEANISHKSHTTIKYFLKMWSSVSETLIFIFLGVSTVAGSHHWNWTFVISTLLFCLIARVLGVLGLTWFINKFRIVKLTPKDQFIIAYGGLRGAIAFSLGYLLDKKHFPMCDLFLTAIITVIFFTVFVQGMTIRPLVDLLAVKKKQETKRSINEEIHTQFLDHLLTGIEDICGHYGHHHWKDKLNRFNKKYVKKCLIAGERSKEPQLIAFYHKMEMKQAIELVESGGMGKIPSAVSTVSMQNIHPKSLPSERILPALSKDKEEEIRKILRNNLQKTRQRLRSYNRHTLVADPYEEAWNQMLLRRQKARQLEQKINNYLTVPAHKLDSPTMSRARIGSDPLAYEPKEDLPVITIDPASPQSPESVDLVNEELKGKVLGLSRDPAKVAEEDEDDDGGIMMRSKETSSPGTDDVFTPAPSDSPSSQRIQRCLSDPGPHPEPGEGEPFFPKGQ

Take `CC(=O)O.Cc1cn(-c2ccc3ccccc3n2)cc1C(=O)NC(=N)N` [Example 29, N-(4-Methyl-1-quinolin-2-yl-1H-pyrrole-3-carbonyl)-guanidine hydrogenacetate]: the melting point was 264.4 °C. Besides, at NHE-1 subtype, the half-inhibitory concentration (IC50) turned out to be 4.3 nM.

Consider `CC(=O)O.Cc1cn(-c2cnc3ccccc3c2)cc1C(=O)NC(=N)N` [Example 30, N-(4-Methyl-1-quinolin-3-yl-1H-pyrrole-3-carbonyl)-guanidine hydrogenacetate], for which the melting point came to 279.5 °C. Besides, the half-inhibitory concentration (IC50) on NHE-1 subtype amounted to 17 nM.

(Values after US7078414B2, “Derivatives of 3-guanidinocarbonyl-1-heteroaryl-pyrrole, preparation process and intermediates of this process, their use as medicaments, and pharmaceutical compositions comprising them” (Sanofi-Aventis Deutschland GmbH, priority 2002, dated 2006).)
